Where “and” joins values, the source holds several entries; their conditions need not be identical. Identical values can stand only once.
How the values were obtained:
[1] = tested on: high-fat diet (HFD)-induced obesity model mice; experiment: Hepatic lipid analysis (total lipid, triglyceride, total cholesterol) in HFD mice; assay type: in vivo, C57BL/6J mice; parameters: Liver TC (Fig. 4c), individual mouse values / Liver TG (Fig. 4d), individual mouse values / Total lipid, liver (Fig. 4e), individual mouse values / Mean Diff., ND vs. treated (Fig. 4c) / Mean Diff., Vehicle vs. treated (Fig. 4c) / Mean (Fig. 4c) / Mean Diff., ND vs. treated (Fig. 4d) / Mean Diff., Vehicle vs. treated (Fig. 4d) / Mean (Fig. 4d) / Mean 2 (group mean), Fig. 4e / Mean Diff., Vehicle vs. treatment, Fig. 4e: unit not given here; conditions: for Mean Diff., ND vs. treated (Fig. 4c) / Mean Diff., Vehicle vs. treated (Fig. 4c) / Mean Diff., ND vs. treated (Fig. 4d) / Mean Diff., Vehicle vs. treated (Fig. 4d): Tukey's multiple comparisons test; for Mean (Fig. 4c) / Mean (Fig. 4d) / Mean 2 (group mean), Fig. 4e: group mean, n=10; for Mean 2 (group mean), Fig. 4e: Tukey test details; for Mean Diff., Vehicle vs. treatment, Fig. 4e: vehicle mean 33.43 minus group mean
Experimental: Frozen livers were homogenized with chloroform-methanol (2:1), and the chloroform layer into which the liver lipids were extracted was collected. This extract was used to measure hepatic total lipid, triglyceride (TG), and total cholesterol (TC) contents. […] The total liver lipid content was measured according to the method described by Forch et al.[19].
Fig. 4 Effects of TH analogs on the accumulation of lipids in mice. […] After 3 weeks of injection, serum and liver tissues were collected, and the amount of serum cholesterol (a), serum triglycerides (b), liver cholesterol (c), liver triglycerides (d), and liver total lipids (e) were measured.

[2] = molecular target: T1, full-length human THRα (Homo sapiens, UniProt P10827); experiment: [125I]-T3-displacement assay, THRα; conditions: from IC50 values THRα vs THRβ
T1 sequence (P10827 1-410 isoform P10827-2): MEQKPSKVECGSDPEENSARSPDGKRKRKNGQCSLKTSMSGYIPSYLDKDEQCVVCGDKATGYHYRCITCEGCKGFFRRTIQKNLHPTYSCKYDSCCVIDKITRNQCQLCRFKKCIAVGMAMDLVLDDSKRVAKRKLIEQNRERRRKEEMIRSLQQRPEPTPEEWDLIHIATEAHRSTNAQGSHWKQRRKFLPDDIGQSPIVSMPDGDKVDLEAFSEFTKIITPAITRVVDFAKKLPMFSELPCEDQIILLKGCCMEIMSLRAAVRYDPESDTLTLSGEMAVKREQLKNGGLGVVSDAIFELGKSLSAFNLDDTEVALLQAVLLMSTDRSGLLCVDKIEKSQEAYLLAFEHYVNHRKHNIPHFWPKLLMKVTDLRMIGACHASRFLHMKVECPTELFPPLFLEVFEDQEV
Experimental: The coding sequences of full-length human THRα and THRβ were amplified by PCR.
The PCR products of THRα and β were cloned into EcoRI–KpnI and EcoRI–XbaI sites of pTNT (Promega), respectively. The resultant expression vectors, pTNT-THRα and pTNT-THRβ, were used for the synthesis of THRs by in vitro translation.
THRα and THRβ were synthesized by in vitro translation using TNT T7 Quick Coupled Transcription and Translation kit (Promega) according to the manufacturer’s protocol. After incubation at 30 °C for 90 min, the reaction mixtures were stored at −80 °C until use.
The reaction mixture was incubated overnight at 4 °C. A nitrocellulose membrane (Optitran, 0.45 μm in pore size, Whatman) pre-blocked by E-400 buffer was placed on a dot-blot apparatus (Minifold I, GE Healthcare), and the reaction mixtures were filtered through the membrane followed by three washes with 200 μL E-400 buffer. […] Radioactive signals were scanned using Typhoon FLA9000 (GE Healthcare) and quantified by Image Quant TL software (GE Healthcare). The IC50 values for each competitor were calculated by fitting the dose–response data to the log (inhibitor) vs. response (three parameters) model using GraphPad Prism (version 8.0; GraphPad Software).
Data are shown as mean ± SD (n = 3). Data were fitted to the log (inhibitor) vs. response (three parameters) model using GraphPad Prism (version 8.0; GraphPad Software).

[3] = tested on: left ventricular cardiomyocytes; experiment: Trans-nuclear width of left ventricular cardiomyocytes (hematoxylin-eosin staining); conditions: for Mean Diff. (Vehicle vs. treated group): Vehicle minus treated, Tukey's multiple comparisons test; for Mean (group mean, Fig. 7c; Tukey's multiple comparisons test details) / Mean Diff. (Vehicle vs. treated group): Fig. 7c
Experimental: Male 7-week-old C57BL/6J mice were obtained from a local supplier (Nihon SLC, Shizuoka, Japan). The mice were individually housed in cages (Innocage; ORIENTAL GIKEN) at 23 °C with a 12-h-light–dark cycle starting at 08:00 a.m. […] The injection was prepared by dissolving the compounds in 0.5 N NaOH at a concentration of 100 mM, which was then further diluted with saline to a concentration of either 0.05 or 0.5 mM. The volume of the solution injected was determined based on the body weight of the animal, measured once a week, with 0.05 and 0.5 mM solutions injected at 0.1 and 1 µmol/kg day, respectively. Each group consisted of 10 animals, except for the ND (n = 8) and HFD with saline (vehicle, n = 9) groups. In the ND-treated group, one animal died during the experimental period, and one animal was excluded from the analysis after finding tumor-like lesions in the liver. In the HFD-treated group, one animal was excluded from the analysis because its body weight was less than two standard deviations below the mean.
Heart tissues were fixed, dehydrated, and permeated with paraffin using an automatic fixation and encapsulation device (Sakura Finetech, Japan). Paraffin blocks were prepared using Tissue Tech TEC 6 (Sakura Finetech, Japan), and 5 µm-thick transverse transmural sections were prepared with a microtome (Leica). The sections were deparaffinized, rehydrated, and immersed in Meyer’s hematoxylin solution (FUJIFILM Wako Pure Chemical Industries), followed by eosin staining. Sections were dehydrated and mounted using Entellan New (Merck). Sections were observed under a microscope (BX43; Olympus) at × 400 magnification and digital images were captured using cellSens (Olympus). 100 cells were randomly selected from the left ventricle of an individual mouse, and their trans-nuclear widths were measured according to Oláh et al.[23] using Image J (National Institute of Health).
Heart sections were prepared and subjected to hematoxylin–eosin staining. 100 cells were randomly selected from the left ventricle of an individual mouse, their trans-nuclear widths were measured, and average values were calculated. Data are shown as the mean ± SEM (n = 8–10). Significant differences among groups are indicated by asterisks (*P < 0.05, **P < 0.01, ***P < 0.001, and ****P < 0.0001, one-way ANOVA with Tukey’s post-hoc test) (c).

[4] = Serum ALT (hepatotoxicity); conditions: for Serum ALT, group mean (Mean 2): n 10, Vehicle mean […]; for serum ALT level vs vehicle: HFD mice, 3 weeks
Experimental: Male 7-week-old C57BL/6J mice were obtained from a local supplier (Nihon SLC, Shizuoka, Japan). The mice were individually housed in cages (Innocage; ORIENTAL GIKEN) at 23 °C with a 12-h-light–dark cycle starting at 08:00 a.m. […] The injection was prepared by dissolving the compounds in 0.5 N NaOH at a concentration of 100 mM, which was then further diluted with saline to a concentration of either 0.05 or 0.5 mM. The volume of the solution injected was determined based on the body weight of the animal, measured once a week, with 0.05 and 0.5 mM solutions injected at 0.1 and 1 µmol/kg day, respectively. Each group consisted of 10 animals, except for the ND (n = 8) and HFD with saline (vehicle, n = 9) groups. […] In the HFD-treated group, one animal was excluded from the analysis because its body weight was less than two standard deviations below the mean.
The blood samples were left to stand for 1 h at room temperature, then centrifuged at 4 °C for 15 min at 800 × g, and the supernatant was collected. […] Serum ALT levels were measured using Alanine Aminotransferase (ALT or SGPT) Activity Colorimetric/Fluorometric Assay Kit (BioVision) according to the manufacturer’s protocol.
Data are shown as the mean ± SEM (n = 8–10).

[5] = HFD mice, i.p., dose not given (0.1 or 1 µmol/kg day), 3 weeks

Cc1cc(OCC(=O)O)cc(C)c1Cc1ccc(O)c(C(C)C)c1 [GC-1]
Liver TC (Fig. 4c), individual mouse values ([1]; 0.1 µmol, HFD mice): 1.641 and 1.677 and 1.869 and 2.323 and 2.266 and 1.713 and 1.915 and 2.417 and 2.05 and 2.041 | Liver TG (Fig. 4d), individual mouse values ([1]; 0.1 µmol, HFD mice): 24.1421 and 24.9345 and 16.7281 and 53.1111 and 43.7729 and 30.8738 and 30.6856 and 28.2214 and 34.8729 and 73.7669 | Total lipid, liver (Fig. 4e), individual mouse values ([1]; 0.1 µmol, HFD mice): 14.6 and 17.3 and 14 and 22.6 and 24.3 and 18.1 and 18.3 and 16.9 and 17.5 and 26.9 | Liver TC (Fig. 4c), individual mouse values ([1]; 1 µmol, HFD mice): 1.533 and 1.874 and 2.437 and 2.533 and 1.78 and 2.383 and 1.435 and 2.474 and 2.396 and 2.183 | Liver TG (Fig. 4d), individual mouse values ([1]; 1 µmol, HFD mice): 36.2948 and 32.7305 and 46.4896 and 42.7911 and 37.2232 and 76.8394 and 41.2151 and 27.0034 and 47.7732 and 49.1408 | Total lipid, liver (Fig. 4e), individual mouse values ([1]; 1 µmol, HFD mice): 17.5 and 17.4 and 20.9 and 22.7 and 22.5 and 28.6 and 18.9 and 18.3 and 21 and 19.5 | Mean Diff., ND vs. treated (Fig. 4c) ([1]; ND minus 0.1 µmol group): -0.7328 | Mean Diff., ND vs. treated (Fig. 4c) ([1]; ND minus 1 µmol group): -0.8444 | Mean Diff., Vehicle vs. treated (Fig. 4c) ([1]; Vehicle minus 0.1 µmol group): -0.4289 | Mean Diff., Vehicle vs. treated (Fig. 4c) ([1]; Vehicle minus 1 µmol group): -0.5405 | Mean (Fig. 4c) ([1]; 0.1 µmol, HFD mice): 1.991 | Mean (Fig. 4c) ([1]; 1 µmol, HFD mice): 2.103 | Mean Diff., ND vs. treated (Fig. 4d) ([1]; ND minus 0.1 µmol group): -7.809 | Mean Diff., ND vs. treated (Fig. 4d) ([1]; ND minus 1 µmol group): -15.45 | Mean Diff., Vehicle vs. treated (Fig. 4d) ([1]; Vehicle minus 0.1 µmol group): 37.27 | Mean Diff., Vehicle vs. treated (Fig. 4d) ([1]; Vehicle minus 1 µmol group): 29.63 | Mean (Fig. 4d) ([1]; 0.1 µmol, HFD mice): 36.11 | Mean (Fig. 4d) ([1]; 1 µmol, HFD mice): 43.75 | liver total lipids vs vehicle [1, 5]: significantly decreased | liver triglycerides vs vehicle [1, 5]: significantly decreased | Mean 2 (group mean), Fig. 4e ([1]; HFD mice, 0.1 µmol): 19.05 | Mean Diff., Vehicle vs. treatment, Fig. 4e ([1]; HFD mice, 0.1 µmol): 14.38 | Mean 2 (group mean), Fig. 4e ([1]; HFD mice, 1 µmol): 20.73 | Mean Diff., Vehicle vs. treatment, Fig. 4e ([1]; HFD mice, 1 µmol): 12.7 | affinity to THRα lower than that to THRβ [2]: approximately 20 fold

O=C(O)Cc1cc(C(F)(F)F)c(Cc2ccc(O)c3ccccc23)c(C(F)(F)F)c1 [ZTA-261]
cardiac width (Fig. 7c), individual values ([3]; 0.1 µmol dose group): 11.9852 and 12.1667 and 12.7952 and 11.4055 and 11.1301 and 11.9423 and 11.9907 and 12.4833 and 12.1061 and 13.5905 | cardiac width (Fig. 7c), individual values ([3]; 1 µmol dose group): 12.0147 and 12.4259 and 11.3636 and 12.41 and 12.0185 and 12.8514 and 11.9471 and 13.2394 and 12.2836 and 12.7848 | Mean (group mean, Fig. 7c; Tukey's multiple comparisons test details) ([3]; HFD mice, dose 0.1 µmol): 12.16 | Mean (group mean, Fig. 7c; Tukey's multiple comparisons test details) ([3]; HFD mice, dose 1 µmol): 12.33 | transnuclear width of left ventricular cardiomyocytes vs vehicle ([3]; HFD mice, i.p. 1 µmol/kg day, 3 weeks): significantly increased | Mean Diff. (Vehicle vs. treated group) ([3]; dose 0.1 µmol): -1.182 | Mean Diff. (Vehicle vs. treated group) ([3]; dose 1 µmol): -1.356 | Serum ALT (Fig.7a), individual animal values ([4]; 0.1 µmol dose group): 6.621 and 5.838 and 5.844 and 8.207 and 7.718 and 6.528 and 9.431 and 12.922 and 7.155 and 6.407 | Serum ALT, Tukey's multiple comparisons test, Mean Diff. (Vehicle vs. compound) ([4]; 0.1 µmol dose group vs. Vehicle): 3.439 | Serum ALT, group mean (Mean 2) ([4]; 0.1 µmol dose group): 7.667 | Serum ALT (Fig.7a), individual animal values ([4]; 1 µmol dose group): 16.644 and 8.576 and 9.103 and 8.327 and 7.596 and 9.601 and 12.863 and 9.311 and 13.948 and 12.038 | Serum ALT, Tukey's multiple comparisons test, Mean Diff. (Vehicle vs. compound) ([4]; 1 µmol dose group vs. Vehicle): 0.3054 | Serum ALT, group mean (Mean 2) ([4]; 1 µmol dose group): 10.8 | serum ALT level vs vehicle ([4]; i.p. 0.1 µmol/kg day): did not show a significant increase | serum ALT level vs vehicle ([4]; i.p. 1 µmol/kg day): did not show a significant increase

Reference: publication PMC11303563 (Communications Medicine, 2024)
